Source: ChEMBL document CHEMBL1138717, “Synthesis of 8-thiabicyclo[3.2.1]oct-2-enes and their binding affinity for the dopamine and serotonin transporters” (Bioorg Med Chem Lett, 2004)
pIC50: −log10 of the molar value.

Assays:
[1] = target: Sodium-dependent dopamine transporter (Homo sapiens, UniProt Q01959); experiment: Inhibition of [3H]WIN-35428 binding to human dopamine transporter (hDAT)
[2] = target: Sodium-dependent serotonin transporter (Homo sapiens, UniProt P31645); experiment: Inhibition of [3H]citalopram binding to human serotonin transporter (hSERT)
[3] = Inhibition of [3H]WIN-35428 binding to dopamine transporter (DAT)

Sodium-dependent serotonin transporter, sequence (P31645 whole entry): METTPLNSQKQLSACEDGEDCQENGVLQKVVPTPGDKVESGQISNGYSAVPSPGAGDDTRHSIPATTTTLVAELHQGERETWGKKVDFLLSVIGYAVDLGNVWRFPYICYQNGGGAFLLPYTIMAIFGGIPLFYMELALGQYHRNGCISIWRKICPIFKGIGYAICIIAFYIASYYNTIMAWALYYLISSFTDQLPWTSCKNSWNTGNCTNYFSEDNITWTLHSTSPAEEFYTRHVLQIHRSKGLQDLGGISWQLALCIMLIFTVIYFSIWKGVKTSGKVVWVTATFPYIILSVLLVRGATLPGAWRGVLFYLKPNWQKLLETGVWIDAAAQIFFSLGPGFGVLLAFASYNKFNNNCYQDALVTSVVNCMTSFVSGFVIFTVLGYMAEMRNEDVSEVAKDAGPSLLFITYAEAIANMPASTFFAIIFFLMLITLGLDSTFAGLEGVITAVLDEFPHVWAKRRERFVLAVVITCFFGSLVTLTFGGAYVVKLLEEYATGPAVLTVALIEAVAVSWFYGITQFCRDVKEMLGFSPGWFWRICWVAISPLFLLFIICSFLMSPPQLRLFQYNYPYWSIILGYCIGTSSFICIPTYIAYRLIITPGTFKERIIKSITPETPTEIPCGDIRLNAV
Sodium-dependent dopamine transporter, sequence (Q01959 whole entry): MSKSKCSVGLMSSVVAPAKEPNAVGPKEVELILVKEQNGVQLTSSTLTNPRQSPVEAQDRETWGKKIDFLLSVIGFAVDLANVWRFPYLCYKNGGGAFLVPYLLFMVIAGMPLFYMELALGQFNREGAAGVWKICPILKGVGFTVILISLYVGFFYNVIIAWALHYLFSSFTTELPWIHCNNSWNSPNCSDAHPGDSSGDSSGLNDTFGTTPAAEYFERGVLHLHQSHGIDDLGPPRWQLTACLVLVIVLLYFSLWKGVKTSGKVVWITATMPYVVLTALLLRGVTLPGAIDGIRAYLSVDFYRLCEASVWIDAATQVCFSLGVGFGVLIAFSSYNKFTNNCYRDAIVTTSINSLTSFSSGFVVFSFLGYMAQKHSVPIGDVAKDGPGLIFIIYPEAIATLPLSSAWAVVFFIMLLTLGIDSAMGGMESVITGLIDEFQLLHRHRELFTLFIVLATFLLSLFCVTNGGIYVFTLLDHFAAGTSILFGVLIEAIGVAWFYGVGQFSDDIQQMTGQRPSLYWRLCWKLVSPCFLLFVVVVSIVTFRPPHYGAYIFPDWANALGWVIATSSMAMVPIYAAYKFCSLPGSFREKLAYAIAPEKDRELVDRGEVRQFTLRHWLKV

Row | Compound | pIC50 [1] | pIC50 [2] | pIC50 [3]
1 | COC(=O)C1=C(c2ccc(Cl)c(Cl)c2)CC2CCC1O2 (stereo unspecified) | 7.92 | – | –
2 | COC(=O)C1=C(c2ccccc2)CC2CCC1O2 (stereo unspecified) | < 5.00 | < 5.00 | –
3 | COC(=O)C1=C(c2ccc(Cl)cc2)CC2CCC1O2 (stereo unspecified) | 6.62 | < 4.22 | –
4 | COC(=O)C1=C(c2ccc(Cl)c(Cl)c2)CC2CCC1S2 (stereo unspecified) | 8.35 | 5.44 | –
5 | COC(=O)C1=C(c2ccc(Cl)cc2)CC2CCC1S2 (stereo unspecified) | 7.89 | < 5.00 | –
6 | COC(=O)C1=C(c2ccc(Br)cc2)CC2CCC1O2 (stereo unspecified) | 7.21 | < 4.52 | –
7 | COC(=O)C1=C(c2ccccc2)CC2CCC1S2 (stereo unspecified) | 6.04 | < 5.00 | –
8 | COC(=O)C1=C(c2ccc(I)cc2)CC2CCC1O2 (stereo unspecified) | 7.17 | 5.32 | –
9 | COC(=O)C1=C(c2ccc(Br)cc2)CC2CCC1S2 (stereo unspecified) | 8.04 | < 4.60 | –
10 | COC(=O)C1=C(c2ccc(F)cc2)CC2CCC1O2 (stereo unspecified) | 5.56 | < 4.30 | –
11 | COC(=O)C1=C(c2ccc(F)cc2)CC2CCC1S2 (stereo unspecified) | 6.66 | 4.55 | –
12 | COC(=O)C1=C(c2ccc(I)cc2)CC2CCC1S2 (stereo unspecified) | 8.17 | 5.06 | –
13 | COC(=O)C1=C(c2ccc3ccccc3c2)CC2CCC1S2 (stereo unspecified) | 8.10 | 5.89 | –
14 | COC(=O)[C@H]1[C@@H](OC(=O)c2ccccc2)C[C@@H]2CC[C@H]1N2C [COCAINE] | – | – | 7.00
